19 molecules from US8609661B2, “Pyrimido-pyrrolo-quinoxalinedione inhibitors of cystic fibrosis transmembrane conductance regulator protein and uses therefor” (The Regents of the University of California, priority 2009, dated 2013) can be followed below.

Read-outs that look alike come from different tables or passages of the source.

By IC50 is commonly meant the concentration that gives 50% inhibition.

The target of this test is T1, human wildtype CFTR (Homo sapiens, UniProt P13569).
T1 construct: expressed in transfected cells; host or cells: Fischer rat thyroid (FRT) cells
T1 sequence (P13569 whole entry): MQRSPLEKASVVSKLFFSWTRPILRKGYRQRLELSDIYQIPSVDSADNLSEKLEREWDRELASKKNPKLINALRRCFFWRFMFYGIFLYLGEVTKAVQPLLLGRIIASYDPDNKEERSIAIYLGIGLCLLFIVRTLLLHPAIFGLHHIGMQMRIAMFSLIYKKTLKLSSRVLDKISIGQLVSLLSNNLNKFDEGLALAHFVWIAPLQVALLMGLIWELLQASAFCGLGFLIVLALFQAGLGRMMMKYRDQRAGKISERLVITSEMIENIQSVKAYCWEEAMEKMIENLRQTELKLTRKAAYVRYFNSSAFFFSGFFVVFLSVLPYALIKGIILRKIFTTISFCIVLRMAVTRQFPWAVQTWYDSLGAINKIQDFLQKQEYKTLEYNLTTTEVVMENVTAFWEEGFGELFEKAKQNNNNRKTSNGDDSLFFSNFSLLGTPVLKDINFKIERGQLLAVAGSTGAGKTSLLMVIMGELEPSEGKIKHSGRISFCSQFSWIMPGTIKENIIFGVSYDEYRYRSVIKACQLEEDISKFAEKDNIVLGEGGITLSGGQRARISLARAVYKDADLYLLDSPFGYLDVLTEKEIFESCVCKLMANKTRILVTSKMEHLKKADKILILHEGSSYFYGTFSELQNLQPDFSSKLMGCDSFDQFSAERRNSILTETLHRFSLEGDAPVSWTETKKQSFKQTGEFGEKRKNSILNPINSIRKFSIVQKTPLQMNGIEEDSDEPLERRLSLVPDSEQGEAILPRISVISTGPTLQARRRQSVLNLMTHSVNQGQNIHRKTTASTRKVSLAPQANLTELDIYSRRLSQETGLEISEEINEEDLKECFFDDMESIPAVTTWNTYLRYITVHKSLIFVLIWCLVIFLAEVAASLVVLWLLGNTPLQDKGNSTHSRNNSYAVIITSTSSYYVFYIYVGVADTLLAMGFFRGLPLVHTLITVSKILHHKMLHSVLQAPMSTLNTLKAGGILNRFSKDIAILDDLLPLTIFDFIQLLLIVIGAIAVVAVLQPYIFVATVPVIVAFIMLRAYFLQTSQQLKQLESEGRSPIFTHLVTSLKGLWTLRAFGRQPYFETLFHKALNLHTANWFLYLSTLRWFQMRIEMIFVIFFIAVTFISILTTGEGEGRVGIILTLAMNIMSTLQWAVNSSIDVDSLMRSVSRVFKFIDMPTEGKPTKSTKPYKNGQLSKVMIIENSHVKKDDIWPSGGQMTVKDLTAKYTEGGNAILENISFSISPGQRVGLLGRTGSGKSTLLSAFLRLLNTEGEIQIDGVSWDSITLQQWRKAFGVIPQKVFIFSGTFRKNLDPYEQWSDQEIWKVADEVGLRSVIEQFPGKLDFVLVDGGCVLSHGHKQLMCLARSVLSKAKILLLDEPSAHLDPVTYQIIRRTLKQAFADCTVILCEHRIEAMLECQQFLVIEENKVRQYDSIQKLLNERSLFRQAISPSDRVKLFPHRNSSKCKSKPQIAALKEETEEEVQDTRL
Nature of the test: Fluorescence platereader assay of CFTR-mediated iodide influx (YFP quenching) in FRT cells. Format: cell-based. As to conditions: for inhibition at 25 µM / inhibition at 5 µM: FRT; for IC50: apparent IC50 from concentration-inhibition data, fluorescence platereader assay. The procedure:
A. Cell lines and compounds—Fischer rat thyroid (FRT) cells co-expressing human wildtype CFTR and the halide indicator YFP-H148Q/1152L were generated as described (see, e.g., Ma et al., J. Clin. Invest. 110:1651-1658 (2002)). Cells were plated in 96-well black-walled microplates (Corning Costar) at a density of 20,000 cells per well in Coon's modified F12 medium supplemented with 5% fetal calf serum, 2 mM L-glutamine, 100 U/mL penicillin, and 100 μg/ml streptomycin. Assays were performed at 48 h after plating the cells when the cells were just confluent. For some experiments, measurements were made using T84 human intestinal epithelial cells and for other experiments, measurements were obtained using primary cultures of human bronchial epithelial cells, which were obtained and grown essentially as previously described (see, e.g., 3 and 27).
B. Compound Screening—Assays were performed using an automated screening platform (Beckman) equipped with FLUOStar fluorescence platereaders (BMG Lab Technologies, Offenburg, Germany) as described (see Ma et al., supra). Each well of a 96-well plate containing FRT cells was washed 3 times in PBS (300 μL/wash), leaving 50 μL PBS. […] After 15 min, 96-well plates were transferred to a plate reader for fluorescence assay. Each well was assayed individually for CFTR-mediated iodide influx by recording fluorescence continuously (200 ms per point) for 2 s (baseline) and then for 10 s after rapid addition of 160 μL of isosmolar PBS in which 137 mM chloride was replaced by iodide. The initial rate of iodide influx was computed from fluorescence data by non-linear regression.
Collections of synthetic and natural compounds were screened according to the screening procedures described in Example 2. A cell-based fluorescence assay was used in which CFTR inhibitors were identified by reduced iodide influx in FRT cells co-expressing human CFTR and a YFP halide sensor. CFTR was maximally activated by a mixture of agonists having different activating mechanisms. Inhibition of iodide influx was observed as reduced YFP fluorescence quenching in response to rapid iodide addition to each well of 96-well plates. […]

The mark [1] stands for this setting: read-out: % inhibition at 25/5 μM (25 μM value), Table 1, 25 μM compound.
[2] abbreviates: Table 2, screening, 5 μM, read-out: % Inhibition at 5 μM.
Where [3] appears, read: Table 2, screening, 25 μM, read-out: % Inhibition at 25 μM.
Where [4] appears, read: read-out: % inhibition at 25/5 μM (5 μM value), Table 1, 5 μM compound.

Consider `COc1cc(O)ccc1C1Nc2ccccc2-n2c(-c3ccccc3)c3c(=O)n(C)c(=O)n(C)c3c21` (centres unmarked) [PPQ-208, 7,9-Dimethyl-11-phenyl-6-(2-methoxy-4-hydroxyphenyl)-5,6-dihydro-pyrimido[4′,5′-3,4]pyrrolo[1,2-a]quinoxaline-8,10-(7H,9H)-dione], for which the concentration for half-maximal inhibition (IC50) was 100000 nM. Moreover, the inhibition at 25 µM under setting [1] amounted to 56%. In addition, the inhibition at 5 µM under setting [2] was 13%. Further, the inhibition at 25 µM under setting [3] was found to be 56%.

Consider `Cc1cccc(-c2c3c(=O)n(C)c(=O)n(C)c3c3n2-c2ccccc2NC3c2ccc(O)cc2)c1` (centres unmarked) [PPQ-209, 7,9-Dimethyl-11-(3-methylphenyl)-6-(4-hydroxyphenyl)-5,6-dihydro-pyrimido[4′,5′-3,4]pyrrolo[1,2-a]quinoxaline-8,10-(7H,9H)-dione], for which the half-maximal inhibitory concentration (IC50) was found to be 1700 nM. Besides, the inhibition at 5 µM under setting [4] is 71%. The inhibition at 25 µM under setting [1] stood at 94%. Moreover, under setting [2], the inhibition at 5 µM came to 71%. Also, the inhibition at 25 µM under setting [3] was determined as 94%.

On to `COc1cccc(C2Nc3ccccc3-n3c(-c4cccc(C)c4)c4c(=O)n(C)c(=O)n(C)c4c32)c1` (centres unmarked) [PPQ-210, 7,9-Dimethyl-11-(3-methylphenyl)-6-(3-methoxyphenyl)-5,6-dihydro-pyrimido[4′,5′-3,4]pyrrolo[1,2-a]quinoxaline-8,10-(7H,9H)-dione], for which the half-inhibitory concentration (IC50) came out at 1700 nM. Also, under setting [4], the inhibition at 5 µM stood at 73%. The inhibition at 5 µM under setting [2] is 73%. Moreover, the inhibition at 25 µM under setting [3] was above 95%.

On to `COc1cccc(C2Nc3ccccc3-n3c(-c4ccccc4F)c4c(=O)n(C)c(=O)n(C)c4c32)c1` (centres unmarked) [PPQ-211, 7,9-Dimethyl-11-(2-fluorophenyl)-6-(3-methoxyphenyl)-5,6-dihydro-pyrimido[4′,5′-3,4]pyrrolo[1,2-a]quinoxaline-8,10-(7H,9H)-dione], for which the IC50 amounted to 2000 nM. For the same molecule, under setting [4], the inhibition at 5 µM was found to be 62%. Further, under setting [2], the inhibition at 5 µM came out at 62%. For the same molecule, the inhibition at 25 µM under setting [3] was above 95%.

In the case of `Cc1cccc(-c2c3c(=O)n(C)c(=O)n(C)c3c3n2-c2ccccc2NC3c2cccc([N+](=O)[O-])c2F)c1` (centres unmarked) [PPQ-212, 7,9-Dimethyl-11-(3-methylphenyl)-6-(2-fluoro-3-nitrophenyl)-5,6-dihydro-pyrimido[4′,5′-3,4]pyrrolo[1,2-a]quinoxaline-8,10-(7H,9H)-dione], the IC50 is 2000 nM.

On to `Cc1ccccc1-c1c2c(=O)n(C)c(=O)n(C)c2c2n1-c1ccccc1NC2c1cccc([N+](=O)[O-])c1` (centres unmarked) [PPQ-213, 7,9-Dimethyl-11-(2-methylphenyl)-6-(3-nitrophenyl)-5,6-dihydro-pyrimido[4′,5′-3,4]pyrrolo[1,2-a]quinoxaline-8,10-(7H,9H)-dione], for which the IC50 was 2000 nM. Further, under setting [4], the inhibition at 5 µM is 64%. The inhibition at 25 µM under setting [1] was determined as 96%. For the same molecule, under setting [2], the inhibition at 5 µM is 64%. The inhibition at 25 µM under setting [3] was determined as 96%.

For the molecule `Cn1c(=O)c2c(-c3ccccc3F)n3c(c2n(C)c1=O)C(c1cccc(Cl)c1)Nc1ccccc1-3` (centres unmarked) [PPQ-214, 7,9-Dimethyl-11-(2-fluorophenyl)-6-(3-chlorophenyl)-5,6-dihydro-pyrimido[4′,5′-3,4]pyrrolo[1,2-a]quinoxaline-8,10-(7H,9H)-dione], the IC50 stood at 2500 nM. In addition, the inhibition at 5 µM under setting [4] was 70%. Moreover, the inhibition at 5 µM under setting [2] worked out at 70%. Further, the inhibition at 25 µM under setting [3] is above 95%.

As to `Cc1cccc(-c2c3c(=O)n(C)c(=O)n(C)c3c3n2-c2ccccc2NC3c2ccccc2F)c1` (centres unmarked) [PPQ-215, 7,9-Dimethyl-11-(3-methylphenyl)-6-(2-fluorophenyl)-5,6-dihydro-pyrimido[4′,5′-3,4]pyrrolo[1,2-a]quinoxaline-8,10-(7H,9H)-dione], the IC50 is 2500 nM. The inhibition at 5 µM under setting [4] was determined as 67%. For the same molecule, under setting [1], the inhibition at 25 µM is 80%. Moreover, the inhibition at 5 µM under setting [2] stood at 67%. The inhibition at 25 µM under setting [3] was 80%.

For the molecule `COc1cccc(C2Nc3ccccc3-n3c(-c4ccccc4C)c4c(=O)n(C)c(=O)n(C)c4c32)c1` (centres unmarked) [PPQ-216, 7,9-Dimethyl-11-(2-methylphenyl)-6-(3-methoxyphenyl)-5,6-dihydro-pyrimido[4′,5′-3,4]pyrrolo[1,2-a]quinoxaline-8,10-(7H,9H)-dione], the half-inhibitory concentration (IC50) worked out at 3000 nM. Under setting [4], the inhibition at 5 µM was 62%. For the same molecule, the inhibition at 5 µM under setting [2] was 62%. The inhibition at 25 µM under setting [3] was above 95%.

For the molecule `Cc1cccc(C2Nc3ccccc3-n3c(-c4ccccc4C)c4c(=O)n(C)c(=O)n(C)c4c32)c1` (centres unmarked) [PPQ-217, 7,9-Dimethyl-11-(2-methylphenyl)-6-(3-methylphenyl)-5,6-dihydro-pyrimido[4′,5′-3,4]pyrrolo[1,2-a]quinoxaline-8,10-(7H,9H)-dione], the IC50 is 3000 nM. Also, under setting [4], the inhibition at 5 µM amounted to 46%. The inhibition at 5 µM under setting [2] turned out to be 46%. Under setting [3], the inhibition at 25 µM was above 95%.

Take `Cc1ccccc1-c1c2c(=O)n(C)c(=O)n(C)c2c2n1-c1ccccc1NC2c1ccccc1` (centres unmarked) [PPQ-218, 7,9-Dimethyl-11-(2-methylphenyl)-6-phenyl-5,6-dihydro-pyrimido[4′,5′-3,4]pyrrolo[1,2-a]quinoxaline-8,10-(7H,9H)-dione]: the 50% inhibitory concentration (IC50) was found to be 5000 nM. In addition, under setting [2], the inhibition at 5 µM is 41%. Also, the inhibition at 25 µM under setting [3] is 94%.

For `Cc1cccc(-c2c3c(=O)n(C)c(=O)n(C)c3c3n2-c2ccccc2NC3c2cccc(F)c2)c1` (centres unmarked) [PPQ-219, 7,9-Dimethyl-11-(3-methylphenyl)-6-(3-fluorophenyl)-5,6-dihydro-pyrimido[4′,5′-3,4]pyrrolo[1,2-a]quinoxaline-8,10-(7H,9H)-dione], the half-inhibitory concentration (IC50) was found to be 8000 nM. In addition, the inhibition at 5 µM under setting [4] was found to be 53%. In addition, under setting [1], the inhibition at 25 µM was found to be 93%. Also, the inhibition at 5 µM under setting [2] came out at 53%. Under setting [3], the inhibition at 25 µM is 93%.

With `Cc1ccc(-c2c3c(=O)n(C)c(=O)n(C)c3c3n2-c2ccccc2NC3c2ccc(C)cc2O)cc1` (centres unmarked) [PPQ-220, 7,9-Dimethyl-11-(4-methylphenyl)-6-(2-hydroxy-4-methylphenyl)-5,6-dihydro-pyrimido[4′,5′-3,4]pyrrolo[1,2-a]quinoxaline-8,10-(7H,9H)-dione], the inhibition at 5 µM under setting [2] was below 10%. Also, the inhibition at 25 µM under setting [3] is above 95%.

In the case of `Cc1ccccc1-c1c2c(=O)n(C)c(=O)n(C)c2c2n1-c1ccccc1NC2c1cccc(F)c1F` (centres unmarked) [PPQ-221, 7,9-Dimethyl-11-(2-methylphenyl)-6-(2,3-difluorophenyl)-5,6-dihydro-pyrimido[4′,5′-3,4]pyrrolo[1,2-a]quinoxaline-8,10-(7H,9H)-dione], the inhibition at 5 µM under setting [2] worked out at 50%. Further, the inhibition at 25 µM under setting [3] was above 95%.

Take `Cc1ccccc1-c1c2c(=O)n(C)c(=O)n(C)c2c2n1-c1ccccc1NC2c1ccc(O)cc1` (centres unmarked) [PPQ-222, 7,9-Dimethyl-11-(2-methylphenyl)-6-(4-hydroxyphenyl)-5,6-dihydro-pyrimido[4′,5′-3,4]pyrrolo[1,2-a]quinoxaline-8,10-(7H,9H)-dione]: under setting [2], the inhibition at 5 µM came to 32%. Also, the inhibition at 25 µM under setting [3] amounted to 84%.

Regarding `Cc1cc2c(cc1C)-n1c(-c3ccccc3)c3c(=O)n(C)c(=O)n(C)c3c1C(c1cccc(O)c1)N2` (centres unmarked) [PPQ-223, 2,3,7,9-Tetramethyl-11-phenyl-6-(3-hydroxyphenyl)-5,6-dihydro-pyrimido[4′,5′-3,4]pyrrolo[1,2-a]quinoxaline-8,10-(7H,9H)-dione], the inhibition at 5 µM under setting [2] was found to be 36%. The inhibition at 25 µM under setting [3] was found to be 92%.

As for `Cc1cc2c(cc1C)-n1c(-c3ccccc3)c3c(=O)n(C)c(=O)n(C)c3c1C(c1ccc(O)c(O)c1)N2` (centres unmarked) [PPQ-224, 2,3,7,9-Tetramethyl-11-phenyl-6-(3,4-dihydroxyphenyl)-5,6-dihydro-pyrimido[4′,5′-3,4]pyrrolo[1,2-a]quinoxaline-8,10-(7H,9H)-dione], the inhibition at 5 µM under setting [2] stood at 24%. Moreover, the inhibition at 25 µM under setting [3] turned out to be 82%.

Take `Cc1cccc(-c2c3c(=O)n(C)c(=O)n(C)c3c3n2-c2ccccc2NC3c2cccc([N+](=O)[O-])c2)c1` (centres unmarked) [PPQ-225, 7,9-Dimethyl-11-(3-methylphenyl)-6-(3-nitrophenyl)-5,6-dihydro-pyrimido[4′,5′-3,4]pyrrolo[1,2-a]quinoxaline-8,10-(7H,9H)-dione]: the inhibition at 5 µM under setting [2] was determined as 61%. Further, the inhibition at 25 µM under setting [3] is 94%.

On to `Cc1cc2c(cc1C)-n1c(-c3ccccc3)c3c(=O)n(C)c(=O)n(C)c3c1C(c1ccccc1)N2` (centres unmarked) [PPQ-226, 2,3,7,9-Tetramethyl-11-phenyl-6-phenyl-5,6-dihydro-pyrimido[4′,5′-3,4]pyrrolo[1,2-a]quinoxaline-8,10-(7H,9H)-dione], for which, under setting [2], the inhibition at 5 µM turned out to be 61%. In addition, the inhibition at 25 µM under setting [3] turned out to be 92%.
